Measurements: patent US20100056431A1, “MEDICAL USES” (priority 2006, published 2010)
“Also recorded” adds a separate entry of the source.

Columns and labels:
phosphorylated MAPK 1/2 = test: Heregulin-induced MAPK phosphorylation in ZR75-1 cells (Western blot); format: cell-based, human; details: ZR75-1 cells (LL-37 expressing), Heregulin 2 ng/ml, 20 min
Procedure: ZR75-1 cells were treated for 20 min with Heregulin (2 ng/ml), LL-25 or LL-37 or in combination as indicated. Protein extracts were analysed by Western blot analysis against phosphorylated MAPK.
ZR75-1 ells were grown in Optimem and 10% FCS, and plated in 12-well plates at 100 000 cells/well, corresponding 70% confluency. After reattachment, cells were starved for 48 hours in DMEM, no FCS. Test substrate dissolved in 50 μl PBS were added to the medium, and cells were incubated for 20 min. The stimulation was stopped by washing the cells with ice-cold PBS containing 1 mM NaF, 100 μM Na3VO4, and 2 mM PMSF, and then lysed in 300 μl SDS lysis buffer containing the inhibitors as above. Proteins were separated in an 8% gel, and blotted to nitrocellulose filters according to standard conditions. Filters were reversibly stained with 3% Ponceau S, blocked with 4% NFDM in TBS/0.1% Tween20, and incubated o.n. with the primary antibody. For detection of phosphorylated MAPK 1/2 (pThr 202/pTyr 204), a monoclonal antibody (Cell Signaling Inc) was used at 1/2000. […] The signal was captured in a CCD camera (Fuji, Tokyo, Japan) for 1 min, and evaluated by Image Gauge Software. For quantification, the signals were normalized against the Ponceau S staining that had been scanned in and quantified using the same software.

phosphorylated MAPK = test: Competitive inhibition of LL-37 on Heregulin-induced MAPK phosphorylation in MCF7 cells (Western blot); format: cell-based, human; details: Heregulin 2 ng/ml
Procedure: Heregulin (2 ng/ml) was added to the breast cancer line MCF7, which produces virtually no LL-37 on its own, together with LL-37 (2 μM) and LL-25 at concentrations as indicated. In the control experiments, the solvent (PBS), or LL-37, LL-25 or heregulin (HRG) were added as the only substrates. The quantitative evaluation of triplicate measurements is shown together with the Western blot of one of the triplicates.
ZR75-1 ells were grown in Optimem and 10% FCS, and plated in 12-well plates at 100 000 cells/well, corresponding 70% confluency. After reattachment, cells were starved for 48 hours in DMEM, no FCS. Test substrate dissolved in 50 μl PBS were added to the medium, and cells were incubated for 20 min. […] The signal was captured in a CCD camera (Fuji, Tokyo, Japan) for 1 min, and evaluated by Image Gauge Software. For quantification, the signals were normalized against the Ponceau S staining that had been scanned in and quantified using the same software.
In a further experiment, Heregulin (2 ng/ml) was added to the breast cancer line MCF7, which produces virtually no LL-37 on its own, together with exogenous LL-37 (2 μM) and LL-25 at concentrations as indicated. […] The quantitative evaluation of triplicate measurements is shown together with the Western blot of one of the triplicates.

HaCaT cells [1] = test: LL-37 peptide treatment of epithelial cells, proliferation by [3H]-Thymidine incorporation; format: cell-based, human; details: serum starved 72 hours, LL-37 10 μg/ml, DMEM+5% FCS, versus non treated control
Procedure: A spontaneously immortalised human keratinocyte cell line (HaCaT) ^19 was cultured in DMEM (Dulbecco's modified Eagle's medium, Gibco BRL, Life Technologies, Scotland) supplemented with 10% FCS (fetal calf serum, Hy-Clone, Boule Nordic AB Huddinge, Sweden) and antibiotics (PEST=penicillin 50 U/l and streptomycin […], Gibco BRL). Cells were harvested at 70% confluence and seeded in 96-well plates, 2000 cells in 100 μl medium (DMEM+10% FCS and PEST). After 12 hours, medium was changed to serum free medium (DMEM+PEST) and cells were synchronized in G0/G1 by serum starvation for 72 hours and then treated with 100 μl of medium (DMEM+5% FCS+PEST) containing synthetic biologically active LL-37 peptide at 10 μg per ml. Cells treated with only DMEM+5% FCS and PEST served as control. The experiments were performed in quadruplicates. Cell proliferation was evaluated by [^3H]-Thymidine incorporation. Cells were treated with 1 μCi/well of [^3H]-Thymidine (20.00 Ci/mmol, Perkin Elmer Life Sciences Inc. Boston, Mass.) during 12 hours and harvested (Harvester 96, Tomtec, Orage, Conn.) onto a glass fiber filter (Wallac Oy Turku, Finland). The incorporation of [^3H]-Thymidine was determined using a liquid scintillation counter (Microbeta Pluss, Wallac Sveriges AB). The experiment was repeated twice in 6 replicates.

ERK1/2 = test: Assay of phosphorylated ERK1/2 in LL-37 treated HaCaT cells (Western blot); format: cell-based, human; details: LL-37 10 μg/ml, 48 hours, 1% or 5% FCS
Procedure: HaCaT cells were seeded at 10% confluence and kept in DMEM with 0.2% FCS for 36 hours. For the next 48 hours, cells were cultured in DMEM with 1% or 5% FCS respectively, and in presence or absence of LL-37 at 10 μg/ml, with daily changes of medium. EGF at 10 ng/ml served as positive control. The expression of phosphorylated ERK 1/2 was evaluated by Western blot analysis with a mouse monoclonal antibody (Cell Signaling Technology, Beverly Mass.).

[2] = Antibacterial assay of synthetic LL-37 peptide
From the text: LL-37 peptide was synthesised and purified by HPLC to a purity of 98% (PolyPeptide Laboratories A/S, Hillerød, Denmark). Biological activity of the peptide was confirmed in an antibacterial assay ^18.

HaCaT cells [3] = test: Pertussis toxin assay (LL-37 induced HaCaT cell proliferation); format: cell-based, human; details: pertussis toxin 20 ng/ml preincubated 24 h before LL-37 at 5 or 10 μg per ml, data not shown
Procedure: To assess the involvement of FPRL1 in mediating the stimulation of epithelial cell proliferation induced by hCAP18/LL-37, HaCaT cells were treated with the G-protein-coupled receptor inhibitor pertussis toxin. Cells were preincubated with pertussis toxin (Sigma-Aldrich, Switzerland) 24 h before the LL-37 treatment in a final toxin concentration of 20 ng/ml. Medium was changed 48 hours after cell seeding and the HaCaT cells were treated with 100 μl of medium (DMEM+5% FCS and PEST) containing synthetic biologically active LL-37 peptide at 5 or 10 μg per ml respectively. Cells treated with only DMEM+5% FCS and PEST served as control.

## LLGDFFRKSKEKIGKEFKRIVQRIK (listed as Homo sapiens) [LL-25, N-terminal 25 amino acids of the C-terminal LL-37 peptide derived from human cathelicidin antimicrobial protein hCAP18]
Phosphorylated MAPK 1/2
  effect on MAPK phosphorylation through Heregulin: inhibits MAPK phosphorylation
Phosphorylated MAPK
  blocking of the endogenous LL-37 contribution to MAPK activation through HRG: can significantly be blocked by LL-25
Phosphorylated MAPK; exogenous LL-37 2 μM, LL-25 at varied concentrations
  inhibition of LL-37 on Heregulin-induced MAPK phosphorylation: competitive and highly efficient inhibitor to LL-37, even at 10% of the concentration of LL-37

## LLGDFFRKSKEKIGKEFKRIVQRIKDFLRNLVPRTES (listed as Homo sapiens) [LL-37, C-terminal peptide of human cathelicidin antimicrobial protein hCAP18; synthesised, HPLC purity 98%]
HaCaT cells [1]
  cell proliferation ([3H]-Thymidine incorporation): significantly increased cell proliferation; also recorded: significant increase in cell proliferation
ERK1/2
  activation of ERK1/2 (phosphorylated ERK1/2): no significant activation of ERK1/2
[2]
  biological activity in antibacterial assay: confirmed

## pertussis toxin
HaCaT cells [3]
  suppression of LL-37 stimulated proliferation by pertussis toxin pretreatment: approximately 50%
